From PubChem BioAssay AID1996 come the findings set out here.

In brackets after ≈: the same amount, converted by molar mass.

The conditions of the data set: buffer; pH 7.4; 200.0 µM.
What is called kinetic solubility is solubility judged after dilution from a stock solution rather than from solid. With `COc1ccc(NC(=O)CSCCc2ccccn2)cc1OC`, the solubility (kinetic) is 48.7 µg/mL (≈ 146 µM).
The figure for `COc1ccccc1C(=O)COC(=O)CN1C(=O)C2CC=CCC2C1=O` (centres undefined) is 52 µg/mL (≈ 146 µM); for `CSC1=N/C(=C/c2cccnc2)C(=O)N1Cc1ccccc1` it is 5.2 µg/mL (≈ 16.8 µM); for `CCc1cc2c(=O)oc(-c3ccccc3F)nc2s1` it is 0.7 µg/mL (≈ 2.54 µM).
In the case of `CC1(C)CC(=O)C=C(Nc2ccccc2)C1` it was greater than 32.3 µg/mL; in that of `O=C(Cn1cc([N+](=O)[O-])ccc1=O)NCC(=O)Nc1ccc(F)c(F)c1F`, 9.2 µg/mL (≈ 23.9 µM); in that of `O=C1ON=C(c2cccc([N+](=O)[O-])c2)/C1=C/c1ccc(O)cc1`, greater than 46.5 µg/mL.
The figure for `CC1CCCCC12NC(=O)N(CC(=O)Nc1nccs1)C2=O` (centres undefined) is greater than 48.4 µg/mL; for `COc1ccccc1OCCCCN1CCCCC1` it is 36.1 µg/mL (≈ 137 µM).
The molecule `CCOC(=O)/C(C#N)=C/Nc1ccsc1C(=O)OC` yielded a kinetic solubility of less than 0.3 µg/mL.
The molecule `CN(/C=C/c1c([N+](=O)[O-])c(=O)n(C)c(=O)n1C)c1ccccc1` had a kinetic solubility of 4.9 µg/mL (≈ 15.5 µM).
The figure for `CCN(C(=O)Cn1c(=O)oc2ccccc21)c1cccc(C)c1` is greater than 46.6 µg/mL.
In the case of `CCOC(=O)C1CCN(C(=O)COc2cccc3ccccc23)CC1` it was 43.2 µg/mL (≈ 127 µM).
In the case of `CC(=O)Nc1ccc(Cl)c(-c2nc3ncccc3o2)c1` it was 41.5 µg/mL (≈ 144 µM); in that of `CC(C)C1CC(C(=O)Nc2ccccc2)C(=O)O1` (centres undefined), 34.9 µg/mL (≈ 141 µM); in that of `O=C(c1ccc(S(=O)(=O)Nc2ccccc2F)cc1)N1CCN(c2ccccn2)CC1`, greater than 66.1 µg/mL.
In the case of `Cc1cccc(NC(=O)c2ccc(OCc3c(C)noc3C)cc2)c1C`, the kinetic solubility was 3.4 µg/mL (≈ 9.7 µM).
In the case of `Cc1cccc(S(=O)(=O)Nc2ccncc2)c1` it was 28.1 µg/mL (≈ 113 µM); in that of `Cc1ccc(C(=O)NCC(c2ccc(F)cc2)N2CCOCC2)s1` (centres undefined), greater than 52.3 µg/mL; in that of `O=C1CN(C(=O)CSc2nncs2)c2ccccc2N1`, greater than 46 µg/mL.
The figure for `O=C(CCS(=O)(=O)c1ccccc1)Nc1nc(-c2ccc(F)cc2)cs1` is less than 0.4 µg/mL.
In the case of `CN1CCN(c2cc(C(F)(F)F)nc3ccc(F)cc23)CC1` it was 43.5 µg/mL (≈ 139 µM).
Molecule `Cc1ncc(CN2CCN(C3CCCC3)C(CCO)C2)s1` (centres undefined) came in with a kinetic solubility of 36 µg/mL (≈ 116 µM).
The figure for `COc1cc(N)ccc1-c1cc2ccccc2oc1=O` is greater than 40.1 µg/mL; for `CN1/C(=C/C=C(C#N)C#N)C=Cc2ccccc21` it is 1.1 µg/mL (≈ 4.72 µM).
As for `CCOC(=O)c1ccccc1NC(=O)Cc1ccc(OC)c(S(=O)(=O)N2CCOCC2)c1`, the kinetic solubility amounted to 60.4 µg/mL (≈ 131 µM). Against the preceding molecule, the solubility kinetic is about 55-fold higher.
Take `N#Cc1ccc(C(=O)Nc2cccc(NC(=O)c3ccco3)c2)c(F)c1`: the solubility (kinetic) worked out at 2 µg/mL (≈ 5.73 µM).
Consider `CC(=O)c1sc(-c2ccc(F)cc2F)nc1C`, for which the kinetic solubility stood at 0.8 µg/mL (≈ 3.16 µM). This solubility kinetic is about 2.5-fold lower than that of the molecule before.
The figure for `O=C(COC(=O)c1cc(F)cc(F)c1)Nc1cccnc1Cl` is 10.9 µg/mL (≈ 33.4 µM); for `NS(=O)(=O)c1cccc(NC(=O)Nc2ccc(Cl)cc2)c1` it is 10.7 µg/mL (≈ 32.8 µM); for `CCOc1ccc(OCc2ccc(C(=O)N3CCCCC3)o2)cc1` it is greater than 49.4 µg/mL.
`O=C(Nc1cccc(NC(=O)c2ccco2)n1)c1ccco1` yielded a kinetic solubility of 6.1 µg/mL (≈ 20.5 µM).
In the case of `N#Cc1ccccc1NC(=S)NC(=O)c1cccs1` it was 30.7 µg/mL (≈ 107 µM).
Consider `CC(=O)/C(C#N)=C1\NC(=O)C(Cc2ccc(F)cc2)S1` (centres undefined), for which the kinetic solubility is greater than 43.5 µg/mL.
In the case of `O=C(NC(=S)/C(=C1\CCCCCN1)[N+](=O)[O-])c1ccccc1` it was 44.9 µg/mL (≈ 141 µM).
Molecule `Cc1nc(CN(C)Cc2nc(Cc3ccccc3Cl)no2)cs1` displayed a solubility (kinetic) of 44.3 µg/mL (≈ 127 µM).
In the case of `O=C(O)/C=C/c1ccc2noc(-c3ccccc3)c2c1` it was 3.7 µg/mL (≈ 13.9 µM); in that of `COc1c(N2CCN[C@H](C)C2)c(F)cc2c(=O)c(C(=O)O)cn(C3CC3)c12`, 38.6 µg/mL (≈ 103 µM).
The figure for `CN(C)C(=O)C1CC(=O)OC12CCCCC2` (centres undefined) is 28.2 µg/mL (≈ 125 µM).
On to `CC(=O)c1sc(-c2ccccc2)cc1NS(=O)(=O)c1ccc(C)cc1`, for which the solubility (kinetic) worked out at 1.1 µg/mL (≈ 2.96 µM).
In the case of `O=C(CN1CCN(c2cccc(Cl)c2)CC1)NCc1ccccc1` it was 42.5 µg/mL (≈ 124 µM); in that of `CCn1ccc(-c2ccccc2)c(C#N)c1=O`, greater than 33.6 µg/mL.
The figure for `CN1CC(c2ccccc2)Oc2ccccc2C1=S` (centres undefined) is 5.6 µg/mL (≈ 20.8 µM).
As for `COc1ccc(CCNC(=O)COC(=O)c2cnc(Cl)c(Cl)c2)cc1`, the solubility (kinetic) amounted to 5.4 µg/mL (≈ 14.1 µM).
As to `CC(C)(C)c1ccc(NC(=O)CON=C(N)c2ccccc2)cc1`, the solubility (kinetic) was determined as 3.8 µg/mL (≈ 11.7 µM).
On to `O=C(CSc1ccc2ccccc2n1)c1ccccc1`, for which the solubility (kinetic) was 1.5 µg/mL (≈ 5.37 µM). Compared with the last molecule, the solubility kinetic is about 2.5-fold lower.
`O=c1[nH]cccc1-c1nc2ccccc2n1Cc1cccc(F)c1` registered a kinetic solubility of 2.4 µg/mL (≈ 7.52 µM).
On to `CC(C)C(O)(C(=O)NNc1ccccc1)C(C)C`, for which the solubility (kinetic) is greater than 37.6 µg/mL.
In the case of `CCN(CC)c1ccc(N=Cc2c(O)n(CCc3ccc(OC)c(OC)c3)c(=O)[nH]c2=O)cc1` it was 9.5 µg/mL (≈ 20.4 µM); in that of `CC(=O)NCc1cc(-c2ccc(Cl)cc2)no1`, 37.2 µg/mL (≈ 148 µM); in that of `c1ccc(-n2cnc3cc(NCc4ccco4)ccc32)cc1`, 35.5 µg/mL (≈ 123 µM).
The figure for `CN(CC(=O)Nc1ccccc1)CC(=O)Nc1ccc(F)cc1` is 30.7 µg/mL (≈ 97.4 µM); for `CCOC(=O)c1sc(=S)n(Cc2ccccc2)c1C` it is 3.4 µg/mL (≈ 11.6 µM).
The figure for `CN(C)C/C=C/C(O)(c1ccccc1)c1ccccc1` is greater than 40.1 µg/mL; for `CCC(C(=O)Nc1ccc(C(=O)N2CCCC2)cc1)c1ccccc1` (centres undefined) it is greater than 50.5 µg/mL; for `COc1ccc(NC(=O)Nc2cc(F)ccc2C)cc1` it is 1.2 µg/mL (≈ 4.37 µM).
For `Cc1ccc(N2C(=O)CN(Cc3ccccc3)C2=S)cc1C`, the solubility (kinetic) was found to be 0.3 µg/mL (≈ 0.966 µM).
The figure for `CN(C(=O)CSCC(=O)Nc1ccc(Cl)cc1)C1CCCCC1` is 5.9 µg/mL (≈ 16.6 µM); for `COc1ccccc1OCC(=O)OCC(=O)NC1CCCCC1` it is greater than 48.2 µg/mL; for `CC(C)[C@H](NC(=O)c1ccccc1)C(=O)NC1CCCCCCC1` it is 1.8 µg/mL (≈ 5.45 µM).
In the case of `O=C(C1COc2ccccc2O1)N1CCCCC1` (centres undefined) it was greater than 37.1 µg/mL.
On to `Cc1onc(-c2c(Cl)cccc2Cl)c1C(=O)N=S(C)(=O)c1ccccc1` (centres undefined), for which the solubility (kinetic) worked out at 1.8 µg/mL (≈ 4.4 µM).
In the case of `CNC(=O)c1ccc(CNC(=O)OCc2ccccc2)cc1` it was greater than 44.8 µg/mL; in that of `Cc1ccc(NC(=O)Nc2ccon2)cc1`, greater than 32.6 µg/mL.
In the case of `CC(C)(C)NC(=O)NCCc1ccccc1` it was 30 µg/mL (≈ 136 µM); in that of `Cc1ccc(C(C)C)c(OCC(=O)NC2CCN(C)CC2)c1`, greater than 45.7 µg/mL.
The figure for `Nc1c(C(=O)c2ccco2)oc2ccccc12` is 25.8 µg/mL (≈ 114 µM); for `Cc1c(/C=C2\NC(=O)NC2=O)c2ccccc2n1C` it is 36.9 µg/mL (≈ 145 µM).
The molecule `Cc1ccc(CC(=O)NC2CCN(Cc3ccccc3)CC2)cc1` returned a kinetic solubility of 41.7 µg/mL (≈ 129 µM).
Consider `COc1cccc(C(=O)Nc2cc3c4c(c2)CC(=O)N4CCC3)c1`, for which the kinetic solubility is greater than 48.4 µg/mL.
In the case of `Cc1ccc(S(=O)(=O)/N=C/c2c(O)ccc3ccccc23)cc1` it was 30.8 µg/mL (≈ 94.7 µM).
The figure for `CSc1ncccc1C(=O)OCC(=O)c1ccc(C)s1` is 3.5 µg/mL (≈ 11.4 µM); for `CCOC(=O)C1CCN(C(=O)c2ccc3c(c2)OCCO3)CC1` it is 44.4 µg/mL (≈ 139 µM); for `CCn1c(C)nc2cc(N)ccc21.Cl` it is 34.3 µg/mL.
Turning to `O=C(Nc1ccc([N+](=O)[O-])cn1)c1cccnc1`, the solubility (kinetic) is 7.2 µg/mL (≈ 29.5 µM).
The molecule `CCC(C)CCCCNC1=NCCS1` (centres undefined) came in with a solubility (kinetic) greater than 32.2 µg/mL.
The figure for `O=C(c1cccc(F)c1)N1CCCc2ccccc21` is 28.1 µg/mL (≈ 110 µM); for `CCCN1CCC(N2CCN(c3ccc([N+](=O)[O-])cc3)CC2)CC1` it is 32.3 µg/mL (≈ 97.2 µM).
In the case of `NC(=O)C[n+]1cccc(/C=N/O)c1.[Cl-]` it was greater than 32.3 µg/mL; in that of `CCc1cc2c(Nc3ccc(O)cc3)nc(C)nc2s1.Cl`, 13.4 µg/mL; in that of `Cc1cccc(NC(=S)NCCc2ccc(F)cc2)c1C`, 2.8 µg/mL (≈ 9.26 µM).
In the case of `Cc1ccc(C(=O)NCCONC(=O)c2ccc(C)cc2)cc1` it was 45.6 µg/mL (≈ 146 µM); in that of `COc1cccc(OCc2ccc(Cl)cc2)c1C#N`, less than 0.6 µg/mL; in that of `O=[N+]([O-])c1cccnc1N1CCN(c2ccccc2F)CC1`, 9.6 µg/mL (≈ 31.8 µM).
The molecule `CCOc1ccc(Cn2cc(F)c(=O)[nH]c2=O)cc1` gave a kinetic solubility greater than 39.6 µg/mL.
Molecule `Cc1ccc(NC(=O)CCN2C(=O)c3ccccc3C2=O)cc1C` gave a solubility (kinetic) of 4.6 µg/mL (≈ 14.3 µM).
In the case of `O=C(NCC1CC1)Nc1cccs1` it was greater than 29.4 µg/mL.
In the case of `COc1cc(/C=C/c2[nH]c(=O)[nH]c(=O)c2[N+](=O)[O-])cc(OC)c1O` it was greater than 50.3 µg/mL; in that of `O=C1Nc2ccc(S(=O)(=O)NCC3CCCO3)c3cccc1c23` (centres undefined), greater than 49.9 µg/mL.
In the case of `Nc1ccccc1SC1CC(=O)N(c2ccc3c(c2)OCCO3)C1=O` (centres undefined), the kinetic solubility turned out to be 0.9 µg/mL (≈ 2.53 µM).
In the case of `Cn1c(C(=O)O)cc2c(=O)n3ccccc3nc21` it was greater than 36.5 µg/mL.
In the case of `COc1ccccc1NC(=O)CCN1CCN(C)CC1` it was 38.6 µg/mL (≈ 139 µM); in that of `CCOC(=O)c1c(C)[nH]c(C)c1S(=O)(=O)N1CCOCC1`, greater than 47.5 µg/mL.
In turn, `Nc1nc(NCCOCCO)nc(NCc2ccccc2)c1[N+](=O)[O-]` registered a kinetic solubility greater than 52.3 µg/mL.
In the case of `CCOC(=O)c1sc(CS(=O)(=O)c2ccc(Cl)cc2)nc1C` it was 6.1 µg/mL (≈ 17 µM).
In the case of `Cc1oncc1-c1csc(-c2ccccc2Cl)n1`, the solubility (kinetic) was found to be 0.6 µg/mL (≈ 2.17 µM). Compared with the last molecule, the solubility kinetic is about 10-fold lower.
In the case of `COc1ccc(NC(=O)C(Cc2cc(C)cc(C)c2)C(C)C(=O)O)cc1` (centres undefined) it was 36.5 µg/mL (≈ 103 µM); in that of `CC(SCc1cc(=O)n2c([nH]c3ccccc32)c1C#N)C(=O)O` (centres undefined), 21.7 µg/mL (≈ 66.3 µM).
The molecule `Nn1c(SCC(=O)Nc2ccc(N3CCOCC3)cc2)nnc1C1CC1` came in with a solubility (kinetic) greater than 56.2 µg/mL.
`Cc1cccc(NC(=O)Nc2cccc3ccccc23)c1`: the kinetic solubility is less than 0.3 µg/mL.
On to `N#C/C(=C\c1cc(Br)ccc1F)C(=O)NC1CC1`, for which the solubility (kinetic) was found to be 13.1 µg/mL (≈ 42.4 µM).
The figure for `COc1ccccc1C(C)NC(=O)CCNC(=O)c1ccc(Cl)cc1` (centres undefined) is 4.5 µg/mL (≈ 12.5 µM).
In the case of `O=C(CN1C(=O)c2ccccc2C1=O)NCc1ccc(F)cc1` it was 6.5 µg/mL (≈ 20.8 µM); in that of `COc1ccc(N=C(C)c2c(O)[nH]c(=O)[nH]c2=O)cc1`, 5 µg/mL (≈ 18.2 µM).
